Like-named read-outs stand apart in the source and are kept apart here.

The target of assay [1] is T1, SAMHD1 (Homo sapiens, UniProt Q9Y3Z3). The arrangement: wt-SAMHD1(1-626); MDCC-PBP phosphate sensor coupled SAMHD1-Ppx1 assay, competitive inhibition of TTP hydrolysis, global fit. Conditions: GTP-activated, substrate TTP 0.1-1 mM, pH 8.0, 25 °C; inhibitor. The method, then:
To obtain quantitative kinetic parameters for substrate hydrolysis (KM and kcat) and for inhibition by dNMPNPP analogues (Ki) a coupled assay was employed utilising the biosensor MDCC-PBP[90],[91] to measure phosphate release from combined SAMHD1 triphosphohydrolase and S. cerevisiae Ppx1 exopolyphosphatase activity. In a typical experiment, solutions containing wt-SAMHD1(1-626), Ppx1, MDCC-PBP and GTP were incubated for 5 min in assay buffer (20 mM Tris pH 8.0, 150 mM NaCl, 5 mM MgCl2 and 2 mM TCEP) at 25 °C before the reaction was initiated by the addition of nucleotides and nucleotide analogues. The final concentrations were 0.2 µM SAMHD1, 0.01 µM Ppx1, 40 µM MDCC-PBP, 0.2 mM GTP and varying concentrations of dNTP substrates and analogues. The fluorescence intensity was recorded at 430 nm excitation and 465 nm emission over a period of 10–30 min in a Clariostar multiwell plate reader (BMG Labtech). […] Apparent dissociation constants for substrate binding (KM) and catalytic constants (kcat) were then determined by non-linear least-squares fitting using a hyperbolic function in the software package Prism 7 (Graphpad). […] The fitting was performed with a fixed value of KM for GTP-activated TTP hydrolysis, determined previously[35] and only kcat and Ki were allowed to vary. […]
Target sequence in this assay (Q9Y3Z3 whole entry): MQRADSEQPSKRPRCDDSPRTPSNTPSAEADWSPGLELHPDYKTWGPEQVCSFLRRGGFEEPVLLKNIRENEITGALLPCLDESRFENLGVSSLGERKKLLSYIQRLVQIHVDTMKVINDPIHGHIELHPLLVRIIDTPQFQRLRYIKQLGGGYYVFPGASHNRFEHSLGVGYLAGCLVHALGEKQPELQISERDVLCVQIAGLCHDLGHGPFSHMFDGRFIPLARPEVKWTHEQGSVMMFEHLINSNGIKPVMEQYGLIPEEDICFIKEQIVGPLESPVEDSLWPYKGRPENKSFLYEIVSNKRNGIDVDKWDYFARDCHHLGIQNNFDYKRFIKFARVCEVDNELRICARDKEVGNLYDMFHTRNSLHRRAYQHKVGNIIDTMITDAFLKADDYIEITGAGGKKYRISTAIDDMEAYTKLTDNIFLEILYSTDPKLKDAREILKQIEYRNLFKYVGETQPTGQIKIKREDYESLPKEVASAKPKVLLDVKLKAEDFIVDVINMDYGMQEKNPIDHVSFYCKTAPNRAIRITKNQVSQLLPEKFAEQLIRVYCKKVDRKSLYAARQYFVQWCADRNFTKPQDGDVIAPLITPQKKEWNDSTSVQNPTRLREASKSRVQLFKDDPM

Assay [2] concerns the target T1, SAMHD1. The assay is described as follows: X-ray co-crystal structure; competitive inhibition in coupled enzyme assay. Format: binding. The arrangement: residues 109-626 (crystal).
Target sequence in this assay (Q9Y3Z3 109-626): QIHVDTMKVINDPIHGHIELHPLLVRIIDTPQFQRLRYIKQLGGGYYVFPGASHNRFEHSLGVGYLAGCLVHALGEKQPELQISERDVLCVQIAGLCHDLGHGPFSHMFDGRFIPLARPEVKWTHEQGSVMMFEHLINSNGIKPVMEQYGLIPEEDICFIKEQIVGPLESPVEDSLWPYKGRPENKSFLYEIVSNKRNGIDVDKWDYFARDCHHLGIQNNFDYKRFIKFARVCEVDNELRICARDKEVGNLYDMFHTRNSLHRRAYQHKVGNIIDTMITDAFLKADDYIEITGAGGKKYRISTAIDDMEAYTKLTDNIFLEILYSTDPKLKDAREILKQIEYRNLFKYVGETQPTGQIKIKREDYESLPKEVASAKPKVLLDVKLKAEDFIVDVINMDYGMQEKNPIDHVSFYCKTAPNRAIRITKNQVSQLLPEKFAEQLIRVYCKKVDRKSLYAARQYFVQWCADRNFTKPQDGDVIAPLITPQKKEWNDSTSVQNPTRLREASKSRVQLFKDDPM
The target of assay [3] is T2, SAMHD1 (Homo sapiens, UniProt Q9Y3Z3, D137N).
T2 construct: residues 109-626
The assay is described as follows: X-ray co-crystal structure; activation of dNTP hydrolysis. In kind it is binding.

Assay [4] has as its target T1, SAMHD1. The assay is described as follows: MDCC-PBP/Ppx1 coupled triphosphohydrolase assay, competitive inhibition of TTP hydrolysis, global fit; SEC-MALLS tetramerisation. The arrangement: wt-SAMHD1(1-626). Format: biochemical.
Target sequence in this assay (Q9Y3Z3 whole entry): as the sequence (Q9Y3Z3 whole entry) above
The target in assay [5] is T2, SAMHD1. The assay is described as follows: X-ray co-crystal structure. In kind it is binding.

T2 sequence (Q9Y3Z3 109-626 D137N): as the sequence (Q9Y3Z3 109-626) above, with D29N counted along it

What is called Ki is the dissociation constant of the complex between target and ligand, obtained from inhibition or displacement. `Cc1cn([C@H]2C[C@H](O)[C@@H](COP(=O)(O)NP(=O)(O)OP(=O)(O)O)O2)c(=O)[nH]c1=O` [TMPNPP] yielded a Ki in assay [1] of 370 ± 20 nM. Further, the X-ray co-crystal structure result in assay [2] is “(ii) GTP (AL1), dATP (AL2) and TMPNPP (active site)”.
Regarding `O=c1[nH]c(=O)c2ncn([C@@H]3O[C@H](COP(=O)(O)OP(=O)(O)OP(=O)(O)O)[C@@H](O)[C@H]3O)c2[nH]1` [XTP], the “X-ray co-crystal structure; activation of dNTP hydrolysis” value in assay [3] is recorded as “D137N-SAMHD1 is activated by xanthosine-5′-triphosphate (XTP) rather than GTP through AL1-binding”.
Turning to `Nc1ncnc2c1ncn2[C@H]1C[C@H](O)[C@@H](COP(=O)(O)NP(=O)(O)OP(=O)(O)O)O1` [dAMPNPP], in assay [4], the Ki was 780 nM.
In the case of `Nc1ccn([C@H]2C[C@H](O)[C@@H](COP(=O)(O)NP(=O)(O)OP(=O)(O)O)O2)c(=O)n1` [dCMPNPP], affinity in assay [1] was put at a Ki of 73 ± 3 nM.
Molecule `Nc1nc2c(ncn2[C@H]2C[C@H](O)[C@@H](COP(=O)(O)NP(=O)(O)OP(=O)(O)O)O2)c(=O)[nH]1` [dGMPNPP] registered a Ki in assay [4] of 52 nM. For the same molecule, the X-ray co-crystal structure entry in assay [5] was “(ii) XTP (AL1) and dGMPNPP (AL2 and active site)”.

The values above are taken from publication PMC7311409, “Crystal structures of SAMHD1 inhibitor complexes reveal the mechanism of water-mediated dNTP hydrolysis” (Nature Communications, 2020).
